Results from publication PMC9102017, “A Structure—Activity Relationship Study of the Inhibition of α-Amylase by Benzoic Acid and Its Derivatives” (Nutrients, 2022).
“And” between values parts separate entries of the source, which are not always exact repeats. Identical values can stand only once. Like-named read-outs stand apart in the source and are kept apart here.

What was measured:
α-amylase = conditions: cited from earlier work
[1] = molecular target: T1, Porcine pancreatic α-amylase (Sus scrofa, UniProt P00690); assay: In vitro α-amylase inhibition assay (starch/DNS, absorbance at 540 nm); assay type: biochemical; conditions: for IC50: 0.2 M potassium phosphate buffer pH 6.8, 37 °C, mean ± SD, triplicate, read-out: IC50 Values against α-Amylase (converted); for inhibited α-amylase more than the analogue without the 2-hydroxyl group: compared with 4-hydroxybenzoic acid (Group 1) or 3,4-dihydroxybenzoic acid (Group 2), Figure 1
T1 construct: purchased Sigma-Aldrich Chemical Co. (St. Louis, MO, USA) A3176
T1 sequence (P00690 16-511): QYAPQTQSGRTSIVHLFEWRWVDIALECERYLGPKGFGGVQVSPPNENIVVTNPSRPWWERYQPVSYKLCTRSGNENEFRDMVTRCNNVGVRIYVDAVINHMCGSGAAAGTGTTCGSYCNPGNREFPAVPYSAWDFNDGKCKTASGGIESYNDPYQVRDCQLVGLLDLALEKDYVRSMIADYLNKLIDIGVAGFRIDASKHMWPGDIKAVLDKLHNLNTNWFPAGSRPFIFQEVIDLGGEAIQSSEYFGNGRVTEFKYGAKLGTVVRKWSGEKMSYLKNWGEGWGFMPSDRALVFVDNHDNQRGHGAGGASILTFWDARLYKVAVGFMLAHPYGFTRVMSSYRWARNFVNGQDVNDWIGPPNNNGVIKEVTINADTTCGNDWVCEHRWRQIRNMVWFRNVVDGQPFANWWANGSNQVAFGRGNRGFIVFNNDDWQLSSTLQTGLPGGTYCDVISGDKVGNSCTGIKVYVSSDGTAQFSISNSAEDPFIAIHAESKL
Protocol: The α-amylase inhibition assay was adapted from Phan et al. with slight modifications. In order to simulate the small intestine conditions, a buffer pH of 6.8 and an incubation temperature of 37 °C were used. Porcine pancreatic α-amylase was dissolved in 0.2 M potassium phosphate buffer (pH 6.8). Phenolic acid solutions were prepared in 80% DMSO. […] An aliquot of 50 μL of phenolic acid solution (10, 20, 30, 40 and 50 mM) was mixed with 400 μL of 0.2 M potassium phosphate buffer (pH 6.8 with 7 mM NaCl) in a 2 mL tube. After adding 100 μL of the enzyme solution (0.5 unit/mL), the tube was incubated at 37 °C for 5 min. Subsequently, 450 μL of the cooked soluble starch solution (5 mg/mL) was added to initiate the reaction at 37 °C for 20 min, followed by the addition of 500 μL of DNS reagent, and then the tubes were boiled for 15 min at 100 °C to inactivate the enzyme. A total of 200 μL of the reaction solution was transferred to a 96-well plate and the absorbance was measured at 540 nm using a microplate reader (Tecan Infinite 200 PRO; Tecan, Männedorf, Zürich, Switzerland). All of the samples were prepared and measured in triplicate. The inhibition rate was calculated using the following formula: (1) Inhibition(%)={1−A[sample]−A[blank]/A[control+]−A[control−]}×100 where:
A [control+] is absorbance at 100% enzyme activity (buffer with starch and enzyme);
A [control−] is starch background absorbance (buffer and starch without enzyme);
A [sample] is test sample absorbance (buffer with enzyme, starch and inhibitor);
A [blank] is inhibitor and starch background absorbance (a test sample without enzyme).
The inhibition rates were plotted against the logarithmic values of six concentrations of the test inhibitor and a non-linear regression analysis was employed to generate a dose-response curve and calculate the IC50 values (mM and mg/mL).

[2] = recent studies, read-out: IC50 for α-amylase
[3] = lower buffer concentration (0.02 M) than in this study, read-out: IC50 previously reported

Row | IC50 [1] | Compound | IC50 (α-amylase; [2]) [mM] | inhibited α-amylase more than the analogue without the 2-hydroxyl group [1] [%] | IC50 (α-amylase; [3]) [mM]
1 |  | O=C(O)c1cc(O)ccc1O [2,5-dihydroxybenzoic acid, reference compound] | 0.298 |  | 
2 | 25.7 mM | O=C(O)c1ccc(O)cc1 [Compound 2, 4-Hydroxybenzoic acid] |  |  | 
3 | 19.3 mM | O=C(O)c1ccc(O)cc1O [Compound 3, 2,4-Dihydroxybenzoic acid] |  | 33.31 | 
4 | 20.6 mM | O=C(O)c1c(O)cc(O)cc1O [Compound 6, 2,4,6-Trihydroxybenzoic acid] |  |  | 
5 | 52.3 mM | Cc1ccc(C(=O)O)cc1 [Compound 8, 4-Methylbenzoic acid] |  |  | 
6 | 23.4 mM | Cc1cc(O)ccc1C(=O)O [Compound 9, 4-Hydroxy-2-methylbenzoic acid] |  |  | 
7 | 28.6 mM | Cc1cc(C(=O)O)ccc1O [Compound 10, 4-Hydroxy-3-methylbenzoic acid] |  |  | 
8 | 26 mM | Cc1cc(C(=O)O)cc(C)c1O [Compound 11, 4-Hydroxy-3,5-dimethylbenzoic acid] |  |  | 
9 | 18.1 mM | Cc1cc(O)cc(O)c1C(=O)O [Compound 12, 2,4-Dihydroxy-6-methylbenzoic acid] |  |  | 
10 | 44.2 mM and 44.1 mM | COc1ccc(C(=O)O)cc1 [Compound 13, 4-Methoxybenzoic acid] |  |  | 
11 | 48.9 mM | COc1cc(O)ccc1C(=O)O [Compound 14, 4-Hydroxy-2-methoxybenzoic acid] |  |  | 
12 | 37.8 mM | COc1cc(C(=O)O)cc(O)c1O [Compound 16, 3,4-Dihydroxy-5-methoxybenzoic acid] |  |  | 

Row | Compound | IC50 [1] | IC50 (α-amylase; [2]) [mM] | inhibited α-amylase more than the analogue without the 2-hydroxyl group [1] [%] | IC50 (α-amylase; [3]) [mM]
13 | O=C(O)c1ccccc1 [Compound 1, Benzoic acid] | 45.2 mM |  |  | 
14 | O=C(O)c1ccc(O)c(O)c1 [Compound 4, 3,4-Dihydroxybenzoic acid] | 25.4 mM |  |  | 11.5 ± 0.45
15 | O=C(O)c1ccc(O)c(O)c1O [Compound 5, 2,3,4-Trihydroxybenzoic acid] | 17.3 mM | 33.3 | 46.56 | 
16 | O=C(O)c1cc(O)c(O)c(O)c1 [Compound 7, 3,4,5-Trihydroxybenzoic acid] | 26.1 mM | 1.25 |  | 7.46 ± 0.24
17 | COc1cc(C(=O)O)ccc1O [Compound 15, 4-Hydroxy-3-methoxybenzoic acid] | 24.4 mM | 27.9 |  | 
18 | COc1cc(C(=O)O)cc(OC)c1O [Compound 17, 4-Hydroxy-3,5-dimethoxybenzoic acid] | 32.2 mM | 44.8 |  | 
